The results in this text go back to patent publication US20230256095A1, “DYES FOR USE IN A METHOD OF TREATMENT OF VITREOUS OPACITY-RELATED DISEASES” (UNIVERSITEIT GENT, priority 2020, published 2023).

Data set [1] has as its system immortalized human Müller cells (MIO-M1). The experiment in a line: MTT toxicity assay on Müller cells. Format: cell-based. The procedure:
MIO-M1 cells were cultured in DMEM Glutamax medium (Thermo Fisher Scientific, Waltham, USA). The medium contained 10% foetal bovine serum (FBS) (Thermo Fisher Scientific, Waltham, USA), 100 IU/ml penicillin (Gibco®-Invitrogen life technologies, Walthan, USA), 100 μg/ml streptomycin (Gibco®-Invitrogen life technologies, Walthan, USA) and 2 mM L-Glutamin (Gibco®-Invitrogen life technologies, Walthan, USA). Before use, the medium was passed through a 0.2 μm PES membrane vacuum filter (VWR, Radnor, USA). The cells were plated in polystyrene cell culture flasks (surface=75 cm^2) (VWR, Radnor, USA) and placed in the incubator (37° C., 5% CO2) (Thermo Fisher Scientific, Waltham, USA) until confluence was reached (i.e. the cells forming a monolayer covering 80%-90% of the culture flask). The morphology was checked by microscopy (VWR, Radnor, USA). After reaching the confluence (more or less after 5 days) and checking the morphology, cells were split in new culture flasks. […]
To test the toxicity of free and nano-encapsulated ICG, we wanted to seed 7,000 Müller cells in each well of a 96-well plate (VWR, Radnor, USA). The cells were counted with a Bürker counting chamber (BRAND, Wertheim, Germany) to obtain the proper number of cells. […] The non-coloured cells were counted in 6 big squares (3 on each side of the chamber); each big square contained 0.1 μL mixture. […]
Background: Tetrazolium dyes change colour on reduction, which living cells bring about.

The test system of data set [2] is human vitreous opacities. The experiment in a line: Photo-ablation of human vitreous opacities obtained after vitrectomy. The settings on record: 0.5 mg/ml.

With `CC1(C)C(/C=C/C=C/C=C/C=C2\N(CCCCS(=O)(=O)O)c3ccc4ccccc4c3C2(C)C)=[N+](CCCCS(=O)(=O)[O-])c2ccc3ccccc3c21` [ICG, Indocyanine Green], in data set [1] (0.5 mg/ml), the “toxicity on immortalized human retinal cells (MIO-M1)” value was “no clear toxicity”. Further, the “toxicity / metabolic activity (MTT)” value in data set [1] (24 hours, 0.1-1 mg/ml) was “rather acceptable toxicity up to a concentration of 0.5 mg/ml”. For the same molecule, the “destruction of human vitreous opacity” value is listed as “the vitreous opacity could be destroyed” in data set [2] (561 nm, 4.5 J/cm^2) and “the vitreous opacity could be destroyed” in data set [2] (800 nm, 1.1 J/cm^2).
